Source: patent publication US20080195024A1, “Treating Disorders Associated with Inflammation” (priority 2005, published 2008)

What was measured:
[1] = Solubility of ANGD in luminal fluid; format: physicochemical; conditions: with or without glucose; white precipitate formed
From the text: (§1) To determine if enzyme inhibition could prevent the generation of cytotoxic mediators from luminal contents, luminal fluids were pre-filtered through three glass fiber filters in series, a procedure that reduces cytotoxic activity, allowing the experiments to be focused solely on new cytotoxic mediator formation. […] The precipitate was separated following the digestion period and the supernatant collected. All samples were then aliquotted and frozen for later measurements of protease activity and neutrophil cytotoxicity.

[2] = tested on: digestive enzymes in luminal contents; assay: Protease activity of wall homogenates digested with filtered luminal fluid with or without protease inhibitors; format: biochemical, rat; conditions: filtered luminal fluid plus inhibitor incubated with wall homogenates 3 hours at 37° C.; final 1 mM PMSF, 1.25 mg/ml (2.31 mM) ANGD
From the text: as §1

[3] = tested on: human neutrophils; assay: Flow cytometric analysis of neutrophil cytotoxicity (PI cell death, forward scatter); format: cell-based; conditions: for increase in forward scatter: pancreatic proteases alone; for cytotoxicity to neutrophils: pure proteases at the tested concentrations
Experimental: Cytotoxicity measurement—flow cytometric analysis of neutrophil cytotoxicity: For measurements of cell death and forward scatter (a measure of cell “size”) by flow cytometry, 100 μl of sample were mixed with 100 μl of cells (10^6 cells/ml final) and after selected periods of incubation, a life/death indicator (200 μl of 2 μM propidium iodide, PI) was added. Within seconds of PI addition, the sample was tested in a flow cytometer (Beckton-Dickson FACScan; Franklin Lakes N.J.).
Flow cytometric analysis of neutrophils was carried out by plotting forward scatter (FSC) on the ordinate and FL-2 (PI fluorescence) on the abscissa. […] Two regions on the scatter plot were gated. Region 1 (R1) was for live cells, and was constructed to monitor an increase in cell size that results from bleb formation and also to observe the small uptake of PI that occur may prior to total membrane failure. […] Ten thousand cells were evaluated per sample. Cell death was reported as the percentage of total cells located in R2, i.e., Death=100%*(# in R2)/(# in R1+# in R2).

[4] = tested on: casein; assay: Protease activity measurement (Enzcheck casein kit) of proteases, homogenates and luminal fluids; format: biochemical; conditions: mixed with equal volume of PBS; fluorescence after 90 minutes; mean±SD, N=6
Experimental: In vitro studies of intestinal wall homogenate digested with proteases—enzymatic digestion of wall homogenates: Wall homogenates were rapidly thawed at 37° C. and mixed with equal volumes of PBS, TPCK-treated trypsin, TLCK-treated chymotrypsin, or elastase. Controls of the proteases alone also were created by mixing them with equal volumes of PBS. Since lower grades of trypsin are often contaminated with the activity of chymotrypsin and vice versa, trypsin pretreated with TPCK (a specific chymotrypsin inhibitor) and chymotrypsin pretreated with TLCK (a trypsin inhibitor) were used to reduce any effects of cross contamination. Before mixing with wall homogenate, the enzymes were reconstituted in PBS at the following concentrations: 1 mg/ml for TPCK-treated trypsin, 1 mg/ml for TLCK-treated chymotrypsin, and 0.5 mg/ml for elastase.
The groups were treated as follows: the luminal fluids from 5 animals were incubated separately (37° C., 3 hours) and aliquots of each sample were collected. One aliquot was filtered through 4 glass fiber pre-filters in series. The unfiltered and filtered aliquots were mixed with equal volumes of PBS (to generate the Lumen and Filtered Lumen groups, respectively) or with wall homogenate from the same animal (to generate the Wall+Lumen and Wall+Filtered Lumen groups, respectively). The Wall group was prepared by mixing wall homogenates with equal volumes of PBS. All samples were incubated at 37° C. for 3 additional hours, aliquotted, and frozen (−70° C.) for later evaluation of neutrophil cytotoxicity and protease activity.

[5] = wall homogenates digested with filtered luminal fluid with inhibitor, exposure 20, 30 or 40 minutes

Compound	solubility in the luminal fluid [1]	protease activity inhibited in the digested homogenates [2]	neutrophil cell death [3, 5]	neutrophil forward scatter [3, 5]	cytotoxicity compared to samples without PMSF ([3]; PMSF added after digestion of wall homogenate by chymotrypsin, not statistically significant)	neutrophil cell death ([3]; PMSF added prior to digestion of wall homogenate by chymotrypsin)	protease activity [4] [RFU]	increase in forward scatter [3]	cytotoxicity to neutrophils [3]
CS(=O)(=O)O.CS(=O)(=O)O.N=C(N)Nc1ccc(C(=O)Oc2ccc3cc(C(=N)N)ccc3c2)cc1 [ANGD, 6-amidino-2-naphthyl p-guanidinobenzoate dimethanesulfonate]	not completely soluble	less effective	significantly decrease the cell death compared to controls	prevented the large increase in forward scatter					
O=S(=O)(F)Cc1ccccc1 [PMSF, phenylmethylsulfonyl fluoride]		approximately half	Neither PMSF nor ANGD alone entirely prevented cell death		slightly increased cytotoxicity	no cell death			
chymotrypsin							2371±230	significantly elevated at 90 minutes	not cytotoxic
elastase: pancreatic elastase from Worthington Biochemicals, 0.5 mg/ml in PBS							2389±300	greatest increase	not cytotoxic
trypsin							300±33	no significant effect	not cytotoxic
